Source: patent publication US20220046923A1, “HERBICIDAL CINNOLINIUM COMPOUNDS” (SYNGENTA CROP PROTECTION AG, priority 2018, published 2022)
Counter-ions that a name gives are not always drawn.

What was measured:
Experiment in all cases: Post-emergence efficacy, glasshouse spray test
Format in all cases: in vivo
[1] = tested on: Amaranthus palmeri (AMAPA); conditions: Amaranthus palmeri, post-emergence, 312 h, evaluated after 13 days, read-out: Control of weed species AMAPA after post-emergence application (100=total damage to plant; 0=no damage to plant); for pest or weed control at 500 g/ha: application rate 500 g/Ha; for pest or weed control at 1000 g/ha: application rate 1000 g/Ha
In short: (§1)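 Visual damage score 13 days after spraying, 0 (no damage) to 100 (plant killed). Pot-grown plants were treated at 14 days post-sowing with aqueous spray of compound formulated in acetone/IF50, diluted with 0.25% or 1% Empicol ESC70 plus 1% ammonium sulphate; glasshouse kept at 24/16 °C, 14 h light, 65% RH.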

[2] = tested on: Chenopodium album (CHEAL); conditions: Chenopodium album, post-emergence, 312 h, evaluated after 13 days, read-out: Control of weed species CHEAL after post-emergence application (100=total damage to plant; 0=no damage to plant); for pest or weed control at 500 g/ha: application rate 500 g/Ha; for pest or weed control at 1000 g/ha: application rate 1000 g/Ha
In short: as §1

[3] = tested on: Digitaria sanguinalis (DIGSA); conditions: Digitaria sanguinalis, post-emergence, 312 h, evaluated after 13 days, read-out: Control of weed species DIGSA after post-emergence application (100=total damage to plant; 0=no damage to plant); for pest or weed control at 500 g/ha: application rate 500 g/Ha; for pest or weed control at 1000 g/ha: application rate 1000 g/Ha
In short: as §1

[4] = tested on: Echinochloa crus-galli (ECHCG); conditions: Echinochloa crus-galli, post-emergence, 312 h, evaluated after 13 days, read-out: Control of weed species ECHCG after post-emergence application (100=total damage to plant; 0=no damage to plant); for pest or weed control at 500 g/ha: application rate 500 g/Ha; for pest or weed control at 1000 g/ha: application rate 1000 g/Ha
In short: as §1

[5] = tested on: Eleusine indica (ELEIN); conditions: Eleusine indica, post-emergence, 312 h, evaluated after 13 days, read-out: Control of weed species ELEIN after post-emergence application (100=total damage to plant; 0=no damage to plant); for pest or weed control at 500 g/ha: application rate 500 g/Ha; for pest or weed control at 1000 g/ha: application rate 1000 g/Ha
In short: as §1

[6] = tested on: Euphorbia heterophylla (EPHHL); conditions: Euphorbia heterophylla, post-emergence, 312 h, evaluated after 13 days, read-out: Control of weed species EPHHL after post-emergence application (100=total damage to plant; 0=no damage to plant); for pest or weed control at 500 g/ha: application rate 500 g/Ha; for pest or weed control at 1000 g/ha: application rate 1000 g/Ha
In short: as §1

[7] = tested on: Ipomoea hederacea (IPOHE); conditions: Ipomoea hederacea, post-emergence, 312 h, evaluated after 13 days, read-out: Control of weed species IPOHE after post-emergence application (100=total damage to plant; 0=no damage to plant); for pest or weed control at 500 g/ha: application rate 500 g/Ha; for pest or weed control at 1000 g/ha: application rate 1000 g/Ha
In short: as §1

[8] = tested on: Lolium perenne (LOLPE); conditions: Lolium perenne, post-emergence, 312 h, evaluated after 13 days, read-out: Control of weed species LOLPE after post-emergence application (100=total damage to plant; 0=no damage to plant); for pest or weed control at 500 g/ha: application rate 500 g/Ha; for pest or weed control at 1000 g/ha: application rate 1000 g/Ha
In short: as §1

[9] = tested on: Setaria faberi (SETFA); conditions: Setaria faberi, post-emergence, 312 h, evaluated after 13 days, read-out: Control of weed species SETFA after post-emergence application (100=total damage to plant; 0=no damage to plant); for pest or weed control at 500 g/ha: application rate 500 g/Ha; for pest or weed control at 1000 g/ha: application rate 1000 g/Ha
In short: as §1

SMILES | pest or weed control at 500 g/ha [1] | pest or weed control at 500 g/ha [2] | pest or weed control at 500 g/ha [3] | pest or weed control at 500 g/ha [4] | pest or weed control at 500 g/ha [5] | pest or weed control at 500 g/ha [6] | pest or weed control at 500 g/ha [7] | pest or weed control at 500 g/ha [8] | pest or weed control at 500 g/ha [9] | pest or weed control at 1000 g/ha [1] | pest or weed control at 1000 g/ha [2] | pest or weed control at 1000 g/ha [3] | pest or weed control at 1000 g/ha [4] | pest or weed control at 1000 g/ha [5] | pest or weed control at 1000 g/ha [6] | pest or weed control at 1000 g/ha [7] | pest or weed control at 1000 g/ha [8] | pest or weed control at 1000 g/ha [9]
C[C@@H](CNS(=O)(=O)[O-])[n+]1ccc2ccccc2n1 [Compound A50] | 80% | 70% | 30% | 20% | 20% | 60% | 40% | 20% | 20% | – | – | – | – | – | – | – | – | –
O=S(=O)([O-])CC[n+]1cc(-c2ccccc2)c2ccccc2n1 [Compound A51] | – | – | – | – | – | – | – | – | – | 90% | 30% | 40% | 20% | 30% | 60% | 30% | 10% | 30%
O=S(=O)([O-])CC[n+]1ccc2cccc(-c3ccccc3)c2n1 [Compound A52, 2-(8-phenylcinnolin-2-ium-2-yl)ethanesulfonate] | – | – | – | – | – | – | – | – | – | 100% | 40% | 40% | 20% | 70% | 100% | 30% | 20% | 30%
O=S(=O)([O-])CC[n+]1ccc2cc(-c3ccccc3)ccc2n1 [Compound A53] | 20% | 0% | 10% | 0% | 40% | 20% | 10% | 0% | 10% | – | – | – | – | – | – | – | – | –
CC#Cc1c[n+](CCOS(=O)(=O)[O-])nc2ccccc12 [Compound A54, 2-(4-prop-1-ynylcinnolin-2-ium-2-yl)ethyl sulfate] | – | – | – | – | – | – | – | – | – | 30% | 40% | 30% | 10% | 30% | 30% | 10% | 10% | 20%
O=C(O)c1ccccc1C[n+]1ccc2ccccc2n1 [Compound A55] | – | – | – | – | – | – | – | – | – | 10% | 30% | 10% | 20% | 10% | 30% | 30% | 0% | 0%
O=S(=O)(O)OCC[n+]1nc2ccccc2cc1Cl [Compound A56] | – | – | – | – | – | – | – | – | – | 0% | 0% | 20% | 10% | 30% | 50% | 0% | 0% | 20%
COC(=O)C[n+]1ccc2cc(C)ccc2n1 [Compound A57] | – | – | – | – | – | – | – | – | – | 70% | 40% | 40% | 20% | 60% | 60% | 20% | 10% | 30%
COC(=O)C[n+]1ccc2cccc(C)c2n1 [Compound A58] | – | – | – | – | – | – | – | – | – | 0% | 30% | 0% | 10% | 10% | 20% | 10% | 0% | 0%
Cc1cccc2cc[n+](CC(=O)O)nc12 [Compound A59] | – | – | – | – | – | – | – | – | – | 30% | 60% | 20% | 20% | 10% | 20% | 10% | 10% | 20%
COC(=O)C[n+]1ccc2cc(OC)ccc2n1 [Compound A60] | – | – | – | – | – | – | – | – | – | 0% | 0% | 30% | 20% | 40% | 10% | 30% | 10% | 10%
COC(=O)CC[n+]1ccc2ccccc2n1 [Compound A61] | – | – | – | – | – | – | – | – | – | 70% | 60% | 80% | 60% | 90% | 70% | 60% | 10% | 50%
COC(=O)C[n+]1cc(C)c2ccccc2n1 [Compound A62] | – | – | – | – | – | – | – | – | – | 70% | 60% | 50% | 30% | 70% | 40% | 50% | 40% | 30%
COC(=O)CC[n+]1cc(C)c2ccccc2n1 [Compound A63] | – | – | – | – | – | – | – | – | – | 40% | 50% | 20% | 10% | 40% | 20% | 10% | 30% | 10%
Cc1c[n+](CCC(=O)O)nc2ccccc12 [Compound A64] | – | – | – | – | – | – | – | – | – | 70% | 70% | 50% | 40% | 50% | 70% | 20% | 10% | 30%
O=C(O)CC[n+]1ccc2ccccc2n1 [Compound A65] | – | – | – | – | – | – | – | – | – | 80% | 80% | 90% | 70% | 90% | 90% | 60% | 40% | 60%
